Columns and labels:
[1] = system: rat brain tissue slices; assay: calcein AM cell viability staining of brain slices subjected to hypoxia; format: cell-based; conditions: calcein AM MFI, Maraviroc 50 μM, trifluoperazine 100 μM, 1 hour pre-treatment, 30 minutes hypoxia; for Significant? (Dunn's multiple comparisons test vs. vehicle control): Alpha 0.05; for Mean rank 2 (mean rank of treatment group, Kruskal-Wallis): vehicle control mean rank 11.73
Procedure: Brain slices were pre-treated for 1 hour with final concentrations of Maraviroc (50 μM), trifluoperazine (100 μM), and both drugs trifluoperazine and maraviroc against vehicle control for 1 hour, before being subjected to 30 minutes of hypoxia.
Damage to the brain tissue was determined by staining the tissue with acetoxymethyl calcein (calcein AM), available from Abcam Ltd, Cambridge, UK and Thermo Fisher, USA. The assay is a quantitative assay used to determine cell viability.

[2] = biological target: CCR5 (Mus musculus, UniProt P51682); conditions: compared with CCR5 knockdown; cited from earlier work
Sequence of CCR5 (P51682 whole entry): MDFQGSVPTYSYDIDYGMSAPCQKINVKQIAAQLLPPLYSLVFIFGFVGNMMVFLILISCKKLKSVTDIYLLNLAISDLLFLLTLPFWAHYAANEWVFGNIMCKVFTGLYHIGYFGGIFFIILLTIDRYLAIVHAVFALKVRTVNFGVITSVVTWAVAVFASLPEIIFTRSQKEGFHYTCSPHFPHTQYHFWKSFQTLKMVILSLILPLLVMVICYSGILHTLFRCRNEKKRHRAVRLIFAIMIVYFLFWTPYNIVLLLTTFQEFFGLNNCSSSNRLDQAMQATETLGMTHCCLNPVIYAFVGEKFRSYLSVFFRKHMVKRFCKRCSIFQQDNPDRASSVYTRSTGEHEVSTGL

For `CN1CCN(CCCN2c3ccccc3Sc3ccc(C(F)(F)F)cc32)CC1` [TFP, trifluoperazine], the “Significant? (Dunn's multiple comparisons test vs. vehicle control)” value [1] was “Yes”, the “Mean rank diff. (Dunn's multiple comparisons test, vehicle control vs. treatment)” value [1] was −25.87 and the “Summary (significance stars, Dunn's multiple comparisons test vs. vehicle control)” value [1] was “*** ((***) p≤001)”. For the same molecule, the “Z (Dunn's multiple comparisons test vs. vehicle control)” value [1] was 4.056 and the “Mean rank 2 (mean rank of treatment group, Kruskal-Wallis)” value [1] was 37.60.
In the case of Maraviroc, the “Significant? (Dunn's multiple comparisons test vs. vehicle control)” value [1] was “Yes”, the “Mean rank diff. (Dunn's multiple comparisons test, vehicle control vs. treatment)” value [1] was −22.07 and the “Summary (significance stars, Dunn's multiple comparisons test vs. vehicle control)” value [1] was “** ((**) p≤0.01)”. For the same molecule, the “Z (Dunn's multiple comparisons test vs. vehicle control)” value [1] was 3.460, the “Mean rank 2 (mean rank of treatment group, Kruskal-Wallis)” value [1] was 33.80 and the “motor recovery post-stroke and cognitive decline post traumatic brain injury” value [2] was “produced similar effects on motor recovery post-stroke and cognitive decline post traumatic brain injury”.

Reference: patent publication US20240226108A9, “TREATMENT OF BRAIN INJURIES” (ASTON UNIVERSITY, priority 2021, published 2024)
